Measured values taken from patent US6054429A (priority 1996, dated 2000).

These compounds were tested on formalin flinch response in rats. Settings: rat, in vivo.

Structure (SMILES)	effect on Phase 1 response (in words)	effect on Phase 2 response (in words)
COc1ccc([C@@H]2Sc3ccccc3N(CCN(C)C)C(=O)[C@@H]2OC(C)=O)cc1 [diltiazem]	without effect	without effect
COC(=O)C1=C(C)NC(C)=C(C(=O)OC)C1c1ccccc1[N+](=O)[O-] [nifedipine]	without effect	without effect
COCCOC(=O)C1=C(C)NC(C)=C(C(=O)OC(C)C)C1c1cccc([N+](=O)[O-])c1 (centres unmarked) [nimodipine]	without effect	without effect
COc1ccc(CCN(C)CCCC(C#N)(c2ccc(OC)c(OC)c2)C(C)C)cc1OC (centres unmarked) [verapamil]	without effect	without effect
